The source of these data is patent US4920103A, “Modifications of mycinose and 3-O-demethylmycinose in tylosin-type macrolides” (Eli Lilly and Company, priority 1986, dated 1990).

Converted amounts (≈) assume the structure as drawn. Like-named read-outs stand apart in the source and are kept apart here.

Holding throughout (type): cell-based
For assay [1], the system named is Staphylococcus aureus X400. The assay can be described thus: MIC, standard agar-dilution assay, S. aureus X400. As for the experimental part:
(§1) The MIC's in Table II were determined by standard agar-dilution assays. The MIC's in Table III were obtained using conventional broth-dilution microtiter tests.

Assay [2] relates to Staphylococcus aureus V41. The assay can be described thus: MIC, standard agar-dilution assay, S. aureus V41. The following applies: Staphylococcus aureus, V41. As for the experimental part:
as §1

Assay [3] has as its system Haemophilus influenzae 76. The assay can be described thus: MIC, standard agar-dilution assay, H. influenzae 76. As to the method:
as §1

For assay [4], the system named is Pseudomonas aeruginosa X239. The assay can be described thus: MIC, standard agar-dilution assay, P. aeruginosa X239. As to the method: as §1
Assay [5] relates to Staphylococcus aureus X1.1. The assay can be described thus: MIC, standard agar-dilution assay, S. aureus X1.1. As to the method:
as §1

Assay [6] deals with Klebsiella pneumoniae X68. The assay can be described thus: MIC, standard agar-dilution assay, K. pneumoniae X68. As for the experimental part: as §1
The test system of assay [7] is Streptococcus Group D 2041. The assay can be described thus: MIC, standard agar-dilution assay, Streptococcus Group D 2041. The conditions noted are these: GROUPD2041. As for the experimental part:
as §1

Assay [8] has as its system Staphylococcus epidermidis 222. The assay can be described thus: MIC, standard agar-dilution assay, S. epidermidis 222. As for the experimental part:
as §1

The test system of the next assay is Escherichia coli EC14. The assay can be described thus: MIC, standard agar-dilution assay, E. coli EC14. As to the method: as §1
Assay [9] deals with Streptococcus Group D X66. The assay can be described thus: MIC, standard agar-dilution assay, Streptococcus Group D X66. As for the experimental part: as §1
For assay [10], the system named is Haemophilus influenzae C.L. The assay can be described thus: MIC, standard agar-dilution assay, H. influenzae C.L. As to the method: as §1
Assay [11] has as its system Staphylococcus epidermidis EPI1. The assay can be described thus: MIC, standard agar-dilution assay, S. epidermidis EPI1. As for the experimental part: as §1
Assay [12] concerns Staphylococcus aureus S13E. The assay can be described thus: MIC, standard agar-dilution assay, S. aureus S13E. As to the method:
as §1

Assay [13] concerns Streptococcus pyogenes C203. The assay can be described thus: MIC, standard agar-dilution assay, S. pyogenes C203. The conditions noted are these: Streptococcus pyogenes, C203. As for the experimental part:
as §1

Where [14] appears, read: agar-dilution, methicillin-resistant strain, read-out: MIC.
Setting [15] is: agar-dilution, ampicillin-resistant strain, read-out: MIC.
Where [16] appears, read: agar-dilution, ampicillin-sensitive strain, read-out: MIC.

For the compound `CCC1OC(=O)CC(O)C(C)C(OC2OC(C)C(O)C(N(C)C)C2O)C(CCOc2ccccc2)CC(C)C(=O)C=CC(C)=CC1COC1OC(C)C(NCC#N)C(OC)C1OC` (stereo not drawn) [Compound 27, 4"-(Cyanomethyl)amino-4"-deoxy-20-DH-20-O-phenyl-desmycosin], the MIC in [1] was 0.5 µg/mL (≈ 0.563 µM); in assay [2], 1 µg/mL (≈ 1.13 µM); in assay [3], 8 µg/mL (≈ 9.01 µM); in [4] (agar-dilution, read-out: MIC), greater than 128 µg/mL; in assay [5], 0.5 µg/mL (≈ 0.563 µM); in [6] (agar-dilution, read-out: MIC) it was greater than 128 µg/mL. Also, the MIC in [7] is 16 µg/mL (≈ 18 µM); in [8] it was 0.5 µg/mL (≈ 0.563 µM); with Escherichia coli EC14 (agar-dilution, read-out: MIC), greater than 128 µg/mL; in assay [9] it was 8 µg/mL (≈ 9.01 µM); in assay [10], 4 µg/mL (≈ 4.5 µM); in assay [11], 0.5 µg/mL (≈ 0.563 µM). Further, in assay [12], the MIC amounted to 0.5 µg/mL (≈ 0.563 µM).
`CCC1OC(=O)CC(O)C(C)C(OC2OC(C)C(O)C(N(C)C)C2O)C(CCOc2ccccc2)CC(C)C(=O)C=CC(C)=CC1COC1OC(C)C(N(C)CC#N)C(OC)C1OC` (stereo not drawn) [Compound 29, 4"-[(Cyanomethyl)methylamino]-4"-deoxy-20-DH-20-O-phenyl-desmycosin]: the MIC in assay [1] was 2 µg/mL (≈ 2.22 µM); in [2] it was 2 µg/mL (≈ 2.22 µM); in assay [3], 32 µg/mL (≈ 35.5 µM); in assay [4], greater than 128 µg/mL; in [5], 2 µg/mL (≈ 2.22 µM); in assay [6], greater than 128 µg/mL. Further, the MIC in assay [7] was 64 µg/mL (≈ 70.9 µM); in assay [8] it was 2 µg/mL (≈ 2.22 µM); in the assay on Escherichia coli EC14, greater than 128 µg/mL; in assay [9], 32 µg/mL (≈ 35.5 µM); in assay [10], 16 µg/mL (≈ 17.7 µM); in assay [11] it was 1 µg/mL (≈ 1.11 µM). The compound further returned an MIC in assay [12] of 2 µg/mL (≈ 2.22 µM).
In the case of `CCC1OC(=O)CC(O)C(C)C(OC2OC(C)C(O)C(N(C)C)C2O)C(CCOc2ccccc2)CC(C)C(=O)C=CC(C)=CC1COC1OC(C)C(N(C)C)C(OC)C1OC` (stereo not drawn) [Compound 33, 4"-Deoxy-20-DH-4"-dimethylamino-20-O-phenyl-desmycosin], the MIC is 2 µg/mL (≈ 2.28 µM) in assay [1] (setting [14]); 4 µg/mL (≈ 4.56 µM) in assay [2]; 64 µg/mL (≈ 73 µM) in [3]; greater than 128 µg/mL in assay [4] (agar-dilution, read-out: MIC); 4 µg/mL (≈ 4.56 µM) in assay [5]; greater than 128 µg/mL in assay [6] (agar-dilution, read-out: MIC). For the same compound, the MIC in assay [7] was 64 µg/mL (≈ 73 µM); in assay [8] (agar-dilution, read-out: MIC), 2 µg/mL (≈ 2.28 µM); with Escherichia coli EC14 (agar-dilution, read-out: MIC), greater than 128 µg/mL; in assay [9], 32 µg/mL (≈ 36.5 µM); in [10], 64 µg/mL (≈ 73 µM); in assay [11] (agar-dilution, read-out: MIC), 2 µg/mL (≈ 2.28 µM). Moreover, the MIC in assay [12] is 4 µg/mL (≈ 4.56 µM).
As for `CCC1OC(=O)CC(O)C(C)C(OC2OC(C)C(O)C(N(C)C)C2O)C(CCOc2ccccc2)CC(C)C(=O)C=CC(C)=CC1COC1OC(C)C(NC(C)C)C(OC)C1OC` (stereo not drawn) [Compound 35, 4"-Deoxy-20-DH-4"-isopropylamino-20-O-phenyldesmycosin], the MIC was 16 µg/mL (≈ 18 µM) in assay [1]; 16 µg/mL (≈ 18 µM) in assay [2]; 128 µg/mL (≈ 144 µM) in assay [3] (setting [15]); greater than 128 µg/mL in assay [4] (agar-dilution, read-out: MIC); 8 µg/mL (≈ 8.98 µM) in assay [5]; greater than 128 µg/mL in assay [6] (agar-dilution, read-out: MIC). Also, the MIC is 128 µg/mL (≈ 144 µM) in assay [7] (agar-dilution, read-out: MIC); 8 µg/mL (≈ 8.98 µM) in assay [8]; greater than 128 µg/mL in the assay with Escherichia coli EC14 (agar-dilution, read-out: MIC); 64 µg/mL (≈ 71.8 µM) in assay [9]; 128 µg/mL (≈ 144 µM) in assay [10] (setting [16]); 8 µg/mL (≈ 8.98 µM) in [11]. The MIC in assay [12] is 16 µg/mL (≈ 18 µM).
In the case of `CCCNC1C(C)OC(OCC2C=C(C)C=CC(=O)C(C)CC(CCOc3ccccc3)C(OC3OC(C)C(O)C(N(C)C)C3O)C(C)C(O)CC(=O)OC2CC)C(OC)C1OC` (stereo not drawn) [Compound 38, 4"-Deoxy-20-DH-20-O-phenyl-4"-(n-propylamino)desmycosin], the MIC in assay [1] (setting [14]) is 16 µg/mL (≈ 18 µM); in assay [2] (agar-dilution, penicillin-resistant strain, read-out: MIC), 16 µg/mL (≈ 18 µM); in [3] (setting [15]) it was greater than 128 µg/mL; in assay [13] it was 4 µg/mL (≈ 4.49 µM); in assay [4] (agar-dilution, read-out: MIC), greater than 128 µg/mL; in [5] (agar-dilution, read-out: MIC), 16 µg/mL (≈ 18 µM). The MIC is greater than 128 µg/mL in [6] (agar-dilution, read-out: MIC); 64 µg/mL (≈ 71.8 µM) in assay [7]; 8 µg/mL (≈ 8.98 µM) in [8]; greater than 128 µg/mL with Escherichia coli EC14 (agar-dilution, read-out: MIC); 16 µg/mL (≈ 18 µM) in [9] (agar-dilution, read-out: MIC); greater than 128 µg/mL in assay [10] (setting [16]). For the same compound, the MIC in [11] (agar-dilution, read-out: MIC) was found to be 16 µg/mL (≈ 18 µM); in [12] it was 8 µg/mL (≈ 8.98 µM).
